Active and inactive are the calls of the source. The rule behind the calls is not given here.
Key:
HCT-116 [1] = test: Induction of RBM39 degradation in human HCT-116 cells at 0.1 to 1 uM incubated for 24 hrs by Western blot analysis; assay type: cell-based; conditions: dose 0.1-1 µM
HCT-116 [2] = test: Induction of RBM39 degradation in human HCT-116 cells at 3 to 300 nM incubated for 24 hrs in presence of MLN4924 by Western blot analysis; assay type: cell-based; conditions: dose 3-300 nM
HCT-116 [3] = test: Induction of RBM39 degradation in human HCT-116 cells at 1 uM incubated for 24 hrs by mass spectrometry-based proteomic analysis; assay type: cell-based
[4] = Competitive inhibition of N-terminal His-tagged RBM39 (146 to 326 residues)/DCAF15 (2 to 600 residues)/full-length DDB1 (1 to 1140 residues)(unknown origin) incubated for 1 hr in presence of (R)-N-(3-(N-(3-Cyano-4-methyl-1H-indol-7-yl)sulfamoyl)phenyl)-2-(2-(((6-(3-(3',6'-dihydroxy-3-oxo-3H-spiro[isobenzofuran-1,9'-xanthen]-5-yl)thioureido)hexyl)amino)methyl)pyrrolidin-1-yl)-2-oxoacetamide by fluorescence polarization assay; design: species or system Homo sapiens
HCT-116 [5] = test: Downregulation of CEP192 expression in human HCT-116 cells incubated for 24 hrs by Western blot analysis; assay type: functional, cell-based
HCT-116 [6] = test: Induction of spliceosome function impairment in human HCT-116 cells assessed as fold increase in CUL4A RI transcript at 1 to 10 uM incubated for 12 hrs by qRT-PCR analysis relative to control; assay type: functional; conditions: dose 1-10 µM
HCT-116 [7] = test: Induction of spliceosome function impairment in human HCT-116 cells assessed as fold increase in PRPF38A RI transcript at 1 to 10 uM incubated for 12 hrs by qRT-PCR analysis relative to control; assay type: functional; conditions: dose 1-10 µM
HCT-116 [8] = test: Induction of spliceosome function impairment in human HCT-116 cells assessed as fold decrease in ZNF207 exon8-exon9 RNA level at 1 to 10 uM incubated for 12 hrs by qRT-PCR analysis relative to control; assay type: functional; conditions: dose 1-10 µM
HCT-116 [9] = test: Induction of spliceosome function impairment in human HCT-116 cells assessed as decrease in ZNF207 exon8-exon10 RNA level at 1 to 10 uM incubated for 12 hrs by qRT-PCR analysis; assay type: functional, cell-based; conditions: dose 1-10 µM
MV4-11 [10] = test: Induction of spliceosome function impairment in human MV4-11 cells assessed as increase in PRPF38A RI transcript incubated for 12 hrs by qRT-PCR analysis; assay type: functional, cell-based; conditions: dose 1-10 µM
K562 [11] = test: Induction of spliceosome function impairment in human K562 cells assessed as increase in CUL4A RI transcript incubated for 12 hrs by qRT-PCR analysis; assay type: functional, cell-based; conditions: dose 1-10 µM
K562 [12] = test: Induction of spliceosome function impairment in human K562 cells assessed as increase in PRPF38A RI transcript incubated for 12 hrs by qRT-PCR analysis; assay type: functional, cell-based; conditions: dose 1-10 µM
K562 [13] = test: Induction of spliceosome function impairment in human K562 cells assessed as decrease in NCKAP1L transcript at 1 to 10 uM incubated for 12 hrs by qRT-PCR analysis; assay type: functional, cell-based; conditions: dose 1-10 µM
[14] = Cmax in ICR mouse at 15 mg/kg, po; assay type: ADME, organism-based; conditions: in vivo
HCT-116 [15] = test: Effect on RNA splicing in human HCT-116 cells assessed as CEP192 gene exon splicing at 2 uM incubated for 12 hrs by RNA-seq analysis; assay type: functional, cell-based
HCT-116 [16] = test: Effect on RNA splicing in human HCT-116 cells assessed as RTTN gene exon splicing at 2 uM incubated for 12 hrs by RNA-seq analysis; assay type: functional, cell-based
[17] = Effect on RNA splicing in human HCT-116 cells assessed as number of skipping exons at 2 uM incubated for 12 hrs by RNA-seq analysis; assay type: functional
[18] = Effect on RNA splicing in human HCT-116 cells assessed as number of mutually exclusive exons at 2 uM incubated for 12 hrs by RNA-seq analysis; assay type: functional
HCT-116 [19] = test: Effect on RNA splicing in human HCT-116 cells assessed as CEP192 gene retention of introns incubated for 12 hrs by PCR analysis; assay type: functional, cell-based; conditions: dose <= 10.0 µM
HCT-116 [20] = test: Effect on RNA splicing in human HCT-116 cells assessed as CEP192 gene skipping exons up to 10 uM by PCR analysis; assay type: functional, cell-based; conditions: time 1-24 hrs
HCT-116 [21] = test: Effect on RNA splicing in human HCT-116 cells assessed as CEP192 gene retention of introns up to 10 uM by PCR analysis; assay type: functional, cell-based; conditions: time 1-24 hrs
HL-60 [22] = test: Effect on RNA splicing in human HL-60 cells assessed as CEP192 gene retention of introns incubated for 12 hrs by PCR analysis; assay type: functional, cell-based; conditions: dose 0.1-10 µM
Kasumi 1 [23] = test: Effect on RNA splicing in human Kasumi 1 cells assessed as CEP192 gene skipping exons incubated for 12 hrs by PCR analysis; assay type: functional, cell-based; conditions: dose 0.1-10 µM
RS4-11 = test: Effect on RNA splicing in human RS4;11 cells assessed as CEP192 gene retention of introns incubated for 12 hrs by PCR analysis; assay type: functional, cell-based; conditions: dose 0.1-10 µM
[24] = Effect on RNA splicing in human K562 cells assessed as number of skipping exons at 2 uM incubated for 12 hrs by RNA-seq analysis; assay type: functional
[25] = Effect on RNA splicing in human K562 cells assessed as skipping exons at 2 uM incubated for 12 hrs by RNA-seq analysis relative to control; assay type: functional
K562 [26] = test: Effect on RNA splicing in human K562 cells assessed as ESPL1 gene skipping exon at 2 uM incubated for 12 hrs by RNA-seq analysis; assay type: functional, cell-based
MV4-11 [27] = test: Antiproliferative activity against human MV4-11 cells assessed as inhibition of cell growth incubated for 4 days by CCK8 assay; assay type: functional, cell-based; conditions: time 4.0 day
HL-60 [28] = test: Antiproliferative activity against human HL-60 cells assessed as inhibition of cell growth incubated for 4 days by CCK8 assay; assay type: functional, cell-based; conditions: time 4.0 day
CEM/C1 [29] = test: Antiproliferative activity against human CEM/C1 cells assessed as inhibition of cell growth incubated for 4 days by CCK8 assay; assay type: functional, cell-based; conditions: time 4.0 day
HCT-116 [30] = test: Induction of apoptosis in human HCT-116 cells at 0.1 to 5 uM incubated for 48 hrs by Annexin V-FITC/PI staining based flow cytometry; assay type: functional, cell-based; conditions: dose 0.1-5 µM
HCT-116 [31] = test: Induction of apoptosis in human HCT-116 cells assessed as change in caspase-3 level at 0.1 to 5 uM incubated for 48 hrs by Western blot analysis; assay type: functional, cell-based; conditions: dose 0.1-5 µM
HCT-116 [32] = test: Induction of apoptosis in human HCT-116 cells assessed as change in PARP level at 0.1 to 5 uM incubated for 48 hrs by Western blot analysis; assay type: functional, cell-based; conditions: dose 0.1-5 µM
Kasumi 1 [33] = test: Induction of RBM39 degradation in human Kasumi 1 cells incubated for 24 hrs by Western blot analysis; assay type: cell-based
CEM/C1 [34] = test: Induction of RBM39 degradation in human CEM/C1 cells incubated for 24 hrs by Western blot analysis; assay type: cell-based
RS4;11 = test: Induction of RBM39 degradation in human RS4;11 cells incubated for 24 hrs by Western blot analysis; assay type: cell-based
HCT-116 [35] = test: Induction of spliceosome function impairment in human HCT-116 cells assessed as increase in NCKAP1L RI transcript at 1 to 10 uM incubated for 12 hrs by qRT-PCR analysis; assay type: functional, cell-based; conditions: dose 1-10 µM
HCT-116 [36] = test: Induction of spliceosome function impairment in human HCT-116 cells assessed as increase in PRPF38A RI transcript at 1 to 10 uM incubated for 12 hrs by qRT-PCR analysis; assay type: functional, cell-based; conditions: dose 1-10 µM

In the case of `Cc1ccc(NS(=O)(=O)c2cccc(NC(=O)C(=O)N3CCC[C@@H]3CO)c2)c2[nH]cc(C#N)c12`, the Activity (HCT-116 [1]) is reported as “Active”, the Activity (HCT-116 [2]) is reported as “inactive” and the Activity (HCT-116 [3]) is reported as “Active”. The IC50 [4] was 594 nM, the Activity (HCT-116 [5]) was “Dose-dependent-effect” and the “fold change (FC)” value (HCT-116 [6]) was 3. For the same compound, the “fold change (FC)” value (HCT-116 [7]) was 3, the “fold change (FC)” value (HCT-116 [8]) was 10 and the Activity (HCT-116 [9]) was “Active”. The Activity (MV4-11 [10]) was “Active”, the Activity (K562 [11]) was “Active” and the Activity (K562 [12]) was “Active”. For the same compound, the Activity (K562 [13]) was “Active”, the Cmax [14] was 2120 ng/mL and the Activity (HCT-116 [15]) was “Active”. For the same compound, the Activity (HCT-116 [16]) was “Active”, the Activity [17] was 8905 and the Activity [18] was 515. For the same compound, the Activity (HCT-116 [19]) was “Dose-dependent-effect; Observed Retention Of Introns Between Exons 27 And 28”, the Activity (HCT-116 [20]) was “Time-dependent-effect; Observed Skipping Of Exons 42, 28 And 13” and the Activity (HCT-116 [21]) was “Time-dependent-effect; Observed Retention Of Introns Between Exons 27 And 28”. For the same compound, the Activity (HL-60 [22]) was “Dose-dependent-effect; Observed Retention Of Introns Between Exons 27 And 28”, the Activity (Kasumi 1 [23]) was “Dose-dependent-effect; Observed Skipping Of Exons 42, 28 And 13” and the Activity (RS4-11) was “Dose-dependent-effect; Observed Retention Of Introns Between Exons 27 And 28”. For the same compound, the Activity [24] was 12285, the Activity [25] was 70.6% and the Activity (K562 [26]) was “Active”. For the same compound, the inhibition (MV4-11 [27]) was “Active”, the inhibition (HL-60 [28]) was “Active” and the inhibition (CEM/C1 [29]) was “Active”. The Activity (HCT-116 [30]) was “inactive”, the Activity (HCT-116 [31]) was “inactive” and the Activity (HCT-116 [32]) was “inactive”. For the same compound, the Activity (Kasumi 1 [33]) was “Dose-dependent-effect”, the Activity (CEM/C1 [34]) was “Dose-dependent-effect” and the Activity (RS4;11) was “Dose-dependent-effect”.

For `NS(=O)(=O)c1ccc(S(=O)(=O)Nc2cccc3c(Cl)c[nH]c23)cc1` [INDISULAM], the Activity (HCT-116 [1]) was “Active”, the Activity (HCT-116 [2]) was “inactive” and the Activity (HCT-116 [3]) was “Active”. For the same compound, the IC50 [4] was 417 nM, the Activity (HCT-116 [5]) was “Dose-dependent-effect” and the Activity (HCT-116 [9]) was “Active”. The Activity (HCT-116 [35]) was “Active”, the Activity (HCT-116 [36]) was “Active” and the Activity (MV4-11 [10]) was “Active”. For the same compound, the Activity (K562 [11]) was “Active”, the Activity (K562 [12]) was “Active” and the Activity (K562 [13]) was “Active”. For the same compound, the Activity (HCT-116 [15]) was “Active”, the Activity (HCT-116 [16]) was “Active” and the Activity [17] was 10485. The Activity [18] was 667, the Activity (K562 [26]) was “Active” and the Activity (HCT-116 [30]) was “inactive”. For the same compound, the Activity (HCT-116 [31]) was “inactive” and the Activity (HCT-116 [32]) was “inactive”.

Reference: ChEMBL document CHEMBL6109117, “Synthesis of an RBM39 Degrader That Downregulates CEP192 and Induces Disorganized Spindle Structures” (J Med Chem, 2025)
